# Reference: ChEMBL document CHEMBL1782000, “Thiazole-based chalcones as potent antimicrobial agents. Synthesis and biological evaluation” (2011)
# Experiments:
# [1] = tested on: Aspergillus ochraceus; assay: Antifungal activity against Aspergillus ochraceus ATCC 12066 after 72 hrs by serial dilution method; format: functional; settings: ATCC 12066, 72 h
# [2] = tested on: Aspergillus ochraceus; assay: Fungicidal activity against Aspergillus ochraceus ATCC 12066 after 72 hrs; format: functional; settings: ATCC 12066, 72 h
# [3] = tested on: Aspergillus niger; assay: Antifungal activity against Aspergillus niger ATCC 6275 after 72 hrs by serial dilution method; format: functional; settings: ATCC 6275, 72 h
# [4] = tested on: Bacillus cereus; assay: Antibacterial activity against Bacillus cereus clinical isolate after 24 hrs by microdilution method; format: functional
# [5] = tested on: Aspergillus fumigatus; assay: Antifungal activity against Aspergillus fumigatus plant isolate after 72 hrs by serial dilution method; format: functional
# [6] = tested on: Penicillium ochrochloron; assay: Antifungal activity against Penicillium ochrochloron ATCC 9112 after 72 hrs by serial dilution method; format: functional; settings: ATCC 9112, 72 h
# [7] = tested on: Pseudomonas aeruginosa; assay: Bactericidal activity against Pseudomonas aeruginosa ATCC 27853 after 24 hrs; format: functional; settings: ATCC 27853, 24 h
# [8] = tested on: Fusarium sporotrichioides; assay: Fungicidal activity against Fusarium sporotrichioides IMT 496 after 72 hrs; format: functional; settings: IMT 496, 72 h
# [9] = tested on: Enterococcus faecalis; assay: Ratio of Ampicillin MIC to compound MIC for Enterococcus faecalis after 24 hrs; format: functional
# [10] = tested on: Escherichia coli; assay: Bactericidal activity against Escherichia coli ATCC 35210 after 24 hrs; format: functional; settings: ATCC 35210, 24 h
# [11] = tested on: Escherichia coli; assay: Antibacterial activity against Escherichia coli ATCC 35210 after 24 hrs by microdilution method; format: functional; settings: ATCC 35210, 24 h
# [12] = tested on: Salmonella typhimurium; assay: Antibacterial activity against Salmonella Typhimurium ATCC 13311 after 24 hrs by microdilution method; format: functional, Salmonella enterica subsp. enterica serovar Typhimurium; settings: Salmonella enterica, ATCC 13311, 24 h
# [13] = tested on: Micrococcus flavus; assay: Antibacterial activity against Micrococcus flavus ATCC 10240 after 24 hrs by microdilution method; format: functional; settings: ATCC 10240, 24 h
# [14] = tested on: Enterococcus faecalis; assay: Antibacterial activity against Enterococcus faecalis isolate obtained from human after 24 hrs by microdilution method; format: functional
# [15] = tested on: Pseudomonas aeruginosa; assay: Antibacterial activity against Pseudomonas aeruginosa ATCC 27853 after 24 hrs by microdilution method; format: functional; settings: ATCC 27853, 24 h
# [16] = tested on: Staphylococcus aureus; assay: Antibacterial activity against Staphylococcus aureus ATCC 6538 after 24 hrs by microdilution method; format: functional; settings: ATCC 6538, 24 h
# [17] = tested on: Salmonella typhimurium; assay: Bactericidal activity against Salmonella Typhimurium ATCC 13311 after 24 hrs; format: functional, Salmonella enterica subsp. enterica serovar Typhimurium; settings: Salmonella enterica, ATCC 13311, 24 h
# [18] = tested on: Aspergillus versicolor; assay: Antifungal activity against Aspergillus versicolor ATCC 11730 after 72 hrs by serial dilution method; format: functional; settings: ATCC 11730, 72 h
# [19] = tested on: Listeria monocytogenes; assay: Bactericidal activity against Listeria monocytogenes NCTC 7973 after 24 hrs; format: functional; settings: NCTC 7973, 24 h
# [20] = tested on: Penicillium ochrochloron; assay: Fungicidal activity against Penicillium ochrochloron ATCC 9112 after 72 hrs; format: functional; settings: ATCC 9112, 72 h
# [21] = tested on: Talaromyces funiculosus; assay: Antifungal activity against Penicillium funiculosum ATCC 36839 after 72 hrs by serial dilution method; format: functional; settings: ATCC 36839, 72 h
# [22] = tested on: Aspergillus fumigatus; assay: Fungicidal activity against Aspergillus fumigatus plant isolate after 72 hrs; format: functional
# [23] = tested on: Trichoderma viride; assay: Fungicidal activity against Trichoderma viride IAM 5061 after 72 hrs; format: functional; settings: IAM 5061, 72 h
# [24] = tested on: Aspergillus versicolor; assay: Fungicidal activity against Aspergillus versicolor ATCC 11730 after 72 hrs; format: functional; settings: ATCC 11730, 72 h
# [25] = tested on: Micrococcus flavus; assay: Bactericidal activity against Micrococcus flavus ATCC 10240 after 24 hrs; format: functional; settings: ATCC 10240, 24 h
# [26] = tested on: Bacillus cereus; assay: Bactericidal activity against Bacillus cereus clinical isolate after 24 hrs; format: functional
# [27] = tested on: Listeria monocytogenes; assay: Antibacterial activity against Listeria monocytogenes NCTC 7973 after 24 hrs by microdilution method; format: functional; settings: NCTC 7973, 24 h
# [28] = tested on: Trichoderma viride; assay: Antifungal activity against Trichoderma viride IAM 5061 after 72 hrs by serial dilution method; format: functional; settings: IAM 5061, 72 h
# [29] = tested on: Aspergillus niger; assay: Fungicidal activity against Aspergillus niger ATCC 6275 after 72 hrs; format: functional; settings: ATCC 6275, 72 h
# [30] = tested on: Staphylococcus aureus; assay: Bactericidal activity against Staphylococcus aureus ATCC 6538 after 24 hrs; format: functional; settings: ATCC 6538, 24 h
# [31] = Antifungal activity against Fusarium sporotrichioides IMT 496 after 72 hrs by serial dilution method; format: functional
# [32] = tested on: Enterococcus faecalis; assay: Bactericidal activity against Enterococcus faecalis isolate obtained from human after 24 hrs; format: functional
# [33] = tested on: Talaromyces funiculosus; assay: Fungicidal activity against Penicillium funiculosum ATCC 36839 after 72 hrs; format: functional; settings: ATCC 36839, 72 h
smiles,measurement,setting,value
CNc1nc(C)c(C(=O)/C=C/c2ccccc2Cl)s1,MIC,[1],306 µM
same,MFC,[2],459 µM
same,MIC,[3],306 µM
same,MIC,[4],229 µM
same,MIC,[5],306 µM
same,MIC,[6],306 µM
same,MBC,[7],306 µM
same,MFC,[8],459 µM
same,Ratio,[9],3
same,MBC,[10],306 µM
same,MIC,[11],229 µM
same,MIC,[12],306 µM
same,MIC,[13],229 µM
same,MIC,[14],76.4 µM
same,MIC,[15],260 µM
same,MIC,[16],306 µM
same,MBC,[17],459 µM
same,MIC,[18],153 µM
same,MBC,[19],459 µM
same,MFC,[20],459 µM
same,MIC,[21],306 µM
same,MFC,[22],612 µM
same,MFC,[23],306 µM
same,MFC,[24],459 µM
same,MBC,[25],260 µM
same,MBC,[26],306 µM
same,MIC,[27],306 µM
same,MIC,[28],153 µM
same,MFC,[29],612 µM
same,MBC,[30],459 µM
same,MIC (10'-2 umol/ml),[31],15.3
same,MBC,[32],153 µM
same,MFC,[33],612 µM
